The text below walks through data of PMC10650850, “Discovery, Structure–Activity Relationship and In Vitro Anticancer Activity of Small-Molecule Inhibitors of the Protein–Protein Interactions between AF9/ENL and AF4 or DOT1L” (Cancers, 2023).

Counter-ions that a name gives are not always drawn.

The target of this assay is T1, AF9-DOT1L interaction (Homo sapiens, UniProt P42568).
T1 construct: human AF9 AHD domain (475–568); made in house; host or cells: E. coli BL21(DE3)
T1 sequence (P42568 475-568): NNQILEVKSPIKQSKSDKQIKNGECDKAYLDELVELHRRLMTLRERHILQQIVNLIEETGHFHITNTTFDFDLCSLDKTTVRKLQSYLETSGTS
Nature of the assay: AlphaLisa assay, AF9-DOT1L interaction. As to conditions: for inhibition at 5 µM: read-out: % Inhibition at 5 μM against the AF9-DOT1L interaction; for IC50: MBP-protein 5 nM, biotinylated peptide 40 nM, 3 independent experiments with standard deviation, read-out: IC50 (μM) against the AF9-DOT1L interaction. The assay is classed as binding. From the text:
An AlphaLisa assay we previously developed was used for compound screening for inhibitors of the AF9-DOT1L interaction. The PPI takes the DOT1L-peptide coated donor beads and AF9 AHD coated acceptor beads together. The donor beads are illuminated with a laser beam (680 nm) to generate singlet oxygen radicals, which activate the adjacent acceptor beads to produce luminescence at 615 nm. When a compound can disrupt such PPI and separate the donor and acceptor beads, the highly unstable radicals are rapidly quenched by water without generating luminescence.
The cDNA for the human AF9 AHD domain (475–568) and ENL AHD domain (489–559) was synthesized (by Genscript, Piscataway, NJ, USA) and inserted into the pMAL c5X expression plasmid. The DOT1L peptide (Biotin-AHX-[…]) and AF4 peptide (Biotin-AHX-[…]) for the Alpha assay were purchased from Genscript.
Alpha assays were developed in our previous publication, using a Perkin-Elmer AlphaLisa anti-MBP kit, which contains streptavidin donor beads and anti-MBP acceptor beads. Briefly, the assay was performed using a MBP-protein (5 nM), a biotinylated peptide (40 nM), and increasing concentrations of a compound in 25 µL buffer (PBS with 0.5% BSA, pH 7.5) in 384-well plates according to the manufacturer’s protocol and measured with a Tecan SPARK microplate reader. Data were imported into Prism (version 5.0), and IC50 values from 3 independent experiments with standard deviation were obtained by using a standard dose-response curve fitting.

Regarding `O=C(NCC1CCNCC1)c1cc2ccc(-c3ccc(-c4ccsc4)cc3)cc2[nH]1` [Compound 6], where the note is “compound at 5 μM”, the inhibition at 5 µM worked out at 14%.
On the same count and under the same terms, in the case of `NCc1ccc(-c2ccc3c(C(=O)NCC4CCNCC4)c[nH]c3c2)cc1` [Compound 14] it was 11%; in that of `O=C(NCC1CCNCC1)c1cc2ccc(-c3ccc(C(=O)N4CCCC4)cc3)cc2o1` [Compound 63, 6-(4-((Pyrrolidine-1-yl)carbonyl)phenyl)-N-(piperidin-4-ylmethyl)-benzofuran-2-carboxamide hydrochloride], 1%.
For `CCN(CC)c1ccc(-c2ccc3cc(C(=O)NCC4CCNCC4)oc3c2)cc1` [Compound 62, 6-(4-(Diethylamino)phenyl)-N-(piperidin-4-ylmethyl)-benzofuran-2-carboxamide hydrochloride], the inhibition at 5 µM (compound at 5 μM) was determined as 30%.
For the compound `O=C(NCC1CCNCC1)c1cc2ccc(Nc3ccc(N4CCCCC4)cc3)cc2o1` [Compound 74, 6-((4-(Piperidin-1-yl)phenyl)amino)-N-(piperidin-4-ylmethyl)-benzofuran-2-carboxamide hydrochloride], the IC50 amounted to 4.6 ± 0.3 µM.
With `CC(C)(C)c1ccc(-c2ccc3sc(C(=O)NCC4CCNCC4)cc3c2)cc1` [Compound 54, 5-(4-(Tert-butyl)phenyl)-N-(piperidin-4-ylmethyl)-benzo[b]thiophene-2-carboxamide hydrochloride], for the setting “compound at 5 μM”, the inhibition at 5 µM was 33%.
Turning to `N#CCc1ccc(-c2ccc3cc(C(=O)NCC4CCNCC4)sc3c2)cc1` [Compound 41, 6-(4-(Cyanomethyl)phenyl)-N-(piperidin-4-ylmethyl)-benzo[b]thiophene-2-carboxamide hydrochloride], the inhibition at 5 µM (compound at 5 μM) was roughly 50%.
With `O=C(NCC1CCNCC1)c1cc2ccc(N3CCC(N4CCCC4)CC3)cc2s1` [Compound 32], the inhibition at 5 µM (compound at 5 μM) came to 20%.
Turning to `O=C(NCC1CCNCC1)c1cc2ccc(-c3ccc(N4CCNCC4)cc3)cc2o1` [Compound 59, 6-(4-(Piperazin-1-yl)phenyl)-N-(piperidin-4-ylmethyl)-benzofuran-2-carboxamide hydrochloride], under “compound at 5 μM”, the inhibition at 5 µM was 38%.
On to “5-(4-(Tert-butyl)phenyl)-N-(piperidin-4-ylmethyl)-benzo[b]thiophene-2-carboxamide hydrochloride [Compound 55]”, for which the “% Inhibition at 5 μM against the AF9-DOT1L interaction” value (compound at 5 μM) came out at 45%.
As to `O=C(NCC1CCNCC1)c1cc2cc(-c3ccc(C(=O)N4CCCC4)cc3)ccc2s1` [Compound 52], the inhibition at 5 µM (compound at 5 μM) was 0%.
In the case of `O=C(NCC1CCNCC1)c1cc2ccc(-c3ccc(CN4CCCCC4)cc3)cc2s1` [Compound 28, 6-(4-(Piperidin-1-ylmethyl)phenyl)-N-(piperidin-4-ylmethyl)-benzo[b]thiophene-2-carboxamide hydrochloride], under “compound at 5 μM”, the inhibition at 5 µM is 45%.
On to `N#Cc1ccc(-c2ccc3cc(C(=O)NCC4CCNCC4)sc3c2)cc1F` [Compound 42, 6-(4-Cyano-3-fluorophenyl)-N-(piperidin-4-ylmethyl)-benzo[b]thiophene-2-carboxamide hydrochloride], for which the inhibition at 5 µM (compound at 5 μM) was 26%.
Consider `CS(=O)(=O)c1ccc(-c2ccc3cc(C(=O)NCC4CCNCC4)oc3c2)cc1` [Compound 70, 6-(4-(Methylsulfonyl)phenyl)-N-(piperidin-4-ylmethyl)-benzofuran-2-carboxamide hydrochloride], for which, under “compound at 5 μM”, the inhibition at 5 µM worked out at 19%.
Turning to `CC(C)(C)c1cccc(-c2ccc3cc(C(=O)NCC4CCNCC4)[nH]c3c2)c1` [Compound 9, 6-(3-(tert-Butyl)phenyl)-N-(piperidin-4-ylmethyl)-1H-indole-2-carboxamide hydrochloride], the inhibition at 5 µM (compound at 5 μM) was 17%.
As to `O=C(NCC1CCNCC1)c1cc2ccc(-c3ccc(N4CCOCC4)cc3)cc2s1` [Compound 26, 6-(4-(Morpholino)phenyl)-N-(piperidin-4-ylmethyl)-benzo[b]thiophene-2-carboxamide hydrochloride], for the setting “compound at 5 μM”, the inhibition at 5 µM was determined as 40%.
`O=C(NCC1CCNCC1)c1cc2ccc(-c3ccc(C4CCCCC4)cc3)cc2[nH]1` [Compound 4, 6-(4-Cyclohexylphenyl)-N-(piperidin-4-ylmethyl)-1H-indole-2-carboxamide hydrochloride]: the inhibition at 5 µM (compound at 5 μM) is 31%.
`CCN(CC)c1ccc(-c2ccc3cc(C(=O)NCC4CCNCC4)sc3c2)cc1` [Compound 27, 6-(4-(Diethylamino)phenyl)-N-(piperidin-4-ylmethyl)-benzo[b]thiophene-2-carboxamide hydrochloride]: the inhibition at 5 µM (compound at 5 μM) worked out at 25%.
`O=C(NCC1CCNCC1)c1cc2cc(-c3ccc(N4CCOCC4)cc3)ccc2[nH]1` [Compound 17]: for the setting “compound at 5 μM”, the inhibition at 5 µM was found to be 52%.
For the compound `O=C(NCC1CCNCC1)c1cc2ccc(-c3ccc(C4CCCCC4)cc3)cc2o1` [Compound 61, 6-(4-Cyclohexylphenyl)-N-(piperidin-4-ylmethyl)-benzofuran-2-carboxamide hydrochloride], the inhibition at 5 µM (compound at 5 μM) is 18%.
Still for that read-out and setting: in the case of `O=C(NCC1CCNCC1)c1cc2cc(-c3ccc(N4CCNCC4)cc3)ccc2[nH]1` [Compound 18] it was 36%.
In the case of `O=C(NCC1CCNCC1)c1cc2ccc(-c3ccc(C(=O)N4CCCCC4)cc3)cc2s1` [Compound 29, 6-(4-(Piperidine-1-carbonyl)phenyl)-N-(piperidin-4-ylmethyl)-benzo[b]thiophene-2-carboxamide hydrochloride], the inhibition at 5 µM (compound at 5 μM) amounted to 8%.
For the compound `O=C(NCC1CCNCC1)c1cc2ccc(-c3ccsc3)cc2[nH]1` [Compound 11], the “Inhibitory activity against the AF9-DOT1L interaction (in words)” value is “almost inactive”. Moreover, the inhibition at 5 µM (compound at 5 μM) is 10%.
For `N#Cc1ccc(-c2ccc3cc(C(=O)NCC4CCNCC4)oc3c2)cc1` [Compound 73, 6-(4-Cyanophenyl)-N-(piperidin-4-ylmethyl)-benzofuran-2-carboxamide hydrochloride], under “compound at 5 μM”, the inhibition at 5 µM was 15%.
On the same count and under the same terms, in the case of `O=C(NCC1CCNCC1)c1cc2ccc(Oc3ccc(Oc4ccc(Cl)cc4)cc3)cc2o1` [Compound 77, 6-(4-(4-Cholorophenoxyl)phenoxyl)-N-(piperidin-4-ylmethyl)-benzofuran-2-carboxamide hydrochloride] it was 20%.
For `Cl.O=C(NCC1CCNCC1)c1cc2ccc(-c3ccc(C(=O)N4CCC(N5CCCCC5)CC4)cc3)cc2s1` [Compound 33, 6-(4-(4-(Piperidin-1-yl)piperidin-1-carbonyl)phenyl)-N-(piperidin-4-ylmethyl)-benzo[b]thiophene-2-carboxamide hydrochloride], the “Inhibitory activity against the AF9-DOT1L interaction (in words)” value was “inactive”. For the same compound, the inhibition at 5 µM (compound at 5 μM) is 0%.
With `O=C(NCC1CCNCC1)c1cc2ccc(-c3ccc(C(=O)N4CCCC4)cc3)cc2s1` [Compound 30], the inhibition at 5 µM (compound at 5 μM) stood at 0%.
In the case of `O=C(NCC1CCNCC1)c1cc2ccc(Oc3ccc(Oc4ccc(Cl)cc4)cc3)cc2s1` [Compound 36, 6-(4-(4-Chlorophenoxyl)phenoxyl)-N-(piperidin-4-ylmethyl)-benzo[b]thiophene-2-carboxamide hydrochloride], the half-inhibitory concentration (IC50) was roughly 5 µM. Moreover, the inhibition at 5 µM (compound at 5 μM) amounted to 50%.
Take `O=C(NCC1CCNCC1)c1cc2ccc(-c3ccc(O)cc3)cc2s1` [Compound 46, 6-(4-Hydroxylphenyl)-N-(piperidin-4-ylmethyl)-benzo[b]thiophene-2-carboxamide hydrochloride]: the inhibition at 5 µM (compound at 5 μM) is 0%.
Still for that read-out and setting: next, `N#Cc1ccc(-c2ccc3sc(C(=O)NCC4CCNCC4)cc3c2)cc1` [Compound 53, 5-(4-Cyanophenyl)-N-(piperidin-4-ylmethyl)-benzo[b]thiophene-2-carboxamide hydrochloride]: 23%.
As for `O=C(NCC1CCNCC1)c1cc2ccc(-c3ccc(C(=O)N4CCCCC4)cc3)cc2o1` [Compound 64, 6-(4-((Piperidine-1-yl)carbonyl)phenyl)-N-(piperidin-4-ylmethyl)-benzofuran-2-carboxamide hydrochloride], the inhibition at 5 µM (compound at 5 μM) was found to be 0%.
As to `O=C(NCC1CCNCC1)c1c[nH]c2ccc(-c3ccc(N4CCCCC4)cc3)cc12` [Compound 23, 5-(4-(Piperidin-1-yl)phenyl)-N-(piperidin-4-ylmethyl)-1H-indole-3-carboxamide hydrochloride], the inhibition at 5 µM (compound at 5 μM) is 43%.
On to `O=C(NCc1ccc(-c2ccc3cc(C(=O)NCC4CCNCC4)oc3c2)cc1)OCc1ccccc1` [Compound 71, 6-(4-(Benzyloxycarbonylaminomethyl)phenyl)-N-(piperidin-4-ylmethyl)-benzofuran-2-carboxamide hydrochloride], for which the inhibition at 5 µM (compound at 5 μM) worked out at 27%.
Take `CC(C)(C)c1ccc(-c2ccc3[nH]c(C(=O)NCC4CCNCC4)cc3c2)cc1` [Compound 19]: the inhibition at 5 µM (compound at 5 μM) came to 13%.
On to `Cc1ccc(-c2ccc3cc(C(=O)NCC4CCNCC4)sc3c2)cc1` [Compound 47, 6-(4-Methylphenyl)-N-(piperidin-4-ylmethyl)-benzo[b]thiophene-2-carboxamide hydrochloride], for which the inhibition at 5 µM (compound at 5 μM) came to 47%.
As to `O=C(NCC1CCNCC1)c1cc2ccc(-c3ccc(N4CCCCC4)cc3)cc2[nH]1` [Compound 1], the concentration for half-maximal inhibition (IC50) came out at 3.3 ± 0.2 µM.
